In patent US7628987B2, “Vectors derived from antibodies for transferring substances into cells” (Institut Pasteur, priority 1997, dated 2009):
Several values for one entry are separate records, joined by “and”; a condition that tells them apart may be missing. Equal entries are not always repeated. No end group written: not given here.

Columns and labels:
[1] = tested on: HSV-1 TK^+ virus; assay: microbe, parasite or virus in culture; type: cell-based, Herpes Virus Simplex type I; details: HSV1 TK^+
[2] = tested on: HSV-1 TK^− virus; assay: microbe, parasite or virus in culture; type: cell-based, Herpes Virus Simplex type I; details: for CPE inhibition (AI): HSV1 TK^−
[3] = tested on: Vero cells; assay: Toxicity reference: non infected treated Vero cells (Neutral Red OD); type: cell-based, monkey
Procedure: The CPE inhibition test is a semi-quantitative test which measures the % survival of the cells. The following protocol was followed: Vero cells were trypsinised (trypsin-versene, Eurobio), distributed in flat bottomed 96-well plates (Falcon) in an amount of […] per well, in 50 μl of DMEM medium (Bioproducts) supplemented with antibiotics, L-glutamine and 5% FCS (Eurobio), then incubated for 24 hours. The peptide/antibodies, sterilised on a […] filter, were added in an amount of […] using the following schedule: • H−24: cells into culture; • H−0: infection; • H−2, H−1, H0, H+1: add peptides; • H+48: CPE test.
48 hours after infection, the medium was removed and the wells were washed 3 times with 200 μl of sterile PBS buffer containing Ca^2+ and Mg^2+, so as to eliminate dead cells. Neutral Red (RAL, 0.3%) was added (100 μl/well) and the cells were incubated for 2 more hours. The cells were then washed 3 times as described above to eliminate colorant which had not been incorporated into the cells. The cells were then exploded by adding 100 μl of 1% SDS in distilled water. After 1 hour at 4° C. to completely leach out the Neutral Red, the crystals were dissolved with a pipette. Air bubbles were destroyed by a current of hot air (hair dryer) and the plates were read, using a microplate reader at 570 nm using a 630 nm reference filter. The optical density blank was air.
The following controls were used: • Reference cells: non infected and non treated, incubated with Neutral Red; • Reference virus: infected cells with different dilutions of a factor of 2 of virus, from 100% CPE (dilution 1/1) to 12.5% CPE (1/8 dilution); • Antiviral reference: cells treated with acyclovir and infected; and • Toxicity reference: non infected cells, treated with different peptides/antibodies.

[4] = tested on: PV1/Mahoney; type: cell-based, polio virus type 1; details: peptide 25 μg/ml, day 5
[5] = tested on: PV1/Sabin; type: cell-based, polio virus type 1; details: for LOG (TITER/ML) / TITER REDUCTION FACTOR: PV1/Sabin, peptide 25 μg/ml, day 5
[6] = tested on: CCL39 cells; type: cell-based, hamster; details: CCL39, complete medium, no auxiliary agent
Procedure: CCL39 cells (hamster fibroblasts) (5×10^4 cells) were placed in 24 well culture plates for 18 hours before transfection in MEM+10% FCS (foetal calf serum) culture medium. Transfections were carried out in MEM+10% FCS with no other auxiliary agent (CHLOROQUINE). The peptide-PL and free polylysine PL (corresponding to 19 lysines) were complexed with the pCMVLUC plasmid (respectively 24 μg and 70 μg per 6 μg of plasmid) for 30 minutes. The complex was then added dropwise to the CCL39. After incubating for 5 hours, the medium was replaced with fresh medium. Luciferase expression was assayed 24 hours later. The cells were washed twice with PBS. After washing, the cells were lysed with 100 μl of lyse buffer (PROMEGA) for 10-15 minutes. The cells were then centrifuged for 7 minutes at 4° C. to remove cellular debris. 20 μl of this lysate was mixed with 100 μl of luciferase buffer (PROMEGA). The relative luciferase units (RLU) were recorded on a LUMAT LB9501 (BERTHOLD). The protein concentration was determined using a BIORAD PROTEIN ASSAY-1 kit and the amount of luciferase in each sample was normalised per mg of protein, each transfection being carried out three times.

[7] = tested on: CMV Ad169 strain; assay: Inhibition of cytomegalovirus (CMV) replication (morphology, plaque counting, Western blot); type: cell-based
[8] = tested on: 3T3 cells
[9] = Human alphaherpesvirus 1, Vero, read-out: CPE inhibition (antiviral activity)
[10] = Day 1, cells pretreated with 25 μg/ml
[11] = Day 4, cells pretreated with 25 μg/ml

Nc1nc2c(ncn2COCCO)c(=O)[nH]1 [ACYCLOVIR ®, Acyclovir, reference compound]
inhibition at 1000 µM ([1]; Human alphaherpesvirus 1, Vero, 10^−3 M, read-out: CPE inhibition (antiviral activity)): 62% | inhibition at 100 µM ([1]; Human alphaherpesvirus 1, Vero, 10^−4 M, read-out: CPE inhibition (antiviral activity)): 49% | inhibition at 10 µM ([1]; Human alphaherpesvirus 1, Vero, 10^−5 M, read-out: CPE inhibition (antiviral activity)): 7% | inhibition at 1 µM ([1]; Human alphaherpesvirus 1, Vero, 10^−6 M, read-out: CPE inhibition (antiviral activity)): 9% | inhibition of the CPE effect, in words ([2]; HSV-1 TK^−): no effect | inhibition at 1 µM [2, 9]: 0% | inhibition at 10 µM [2, 9]: 0% | inhibition at 100 µM [2, 9]: 0% | inhibition at 1000 µM [2, 9]: 0% | optical density, non infected cells ([3]; 10^−3 M /0, column HSV1 TK^+): 0.909 ± 0.016 | optical density, non infected cells ([3]; 10^−3 M /0, column HSV1 TK^−): 0.789 ± 0.160 | optical density, non infected cells ([3]; 10^−4 M /0, column HSV1 TK^+): 1.027 ± 0.042 | optical density, non infected cells ([3]; 10^−4 M /0, column HSV1 TK^−): 0.834 ± 0.086 | optical density, non infected cells ([3]; 10^−5 M /0, column HSV1 TK^+): 0.975 ± 0.093 | optical density, non infected cells ([3]; 10^−5 M /0, column HSV1 TK^−): 0.869 ± 0.053 | optical density, non infected cells ([3]; 10^−6 M /0, column HSV1 TK^+): 0.960 ± 0.025 | optical density, non infected cells ([3]; 10^−6 M /0, column HSV1 TK^−): 0.816 ± 0.001

(K)19-AISRGGGYSYYLDTVKRTARATWDWFAY (KKKKKKKKKKKKKKKKKKKAISRGGGYSYYLDTVKRTARATWDWFAY) [K19PC2.1]
LOG (TITER/ML) [4]: 9.05 | TITER REDUCTION FACTOR [4]: 4 | LOG (TITER/ML) [5]: 8.6 | TITER REDUCTION FACTOR [5]: 8 | CPE inhibition (AI) ([1]; added H0, 5 μ/well): 69 | CPE inhibition (AI) ([1]; added H + 1, 5 μ/well): 37 | CPE inhibition (AI) ([1]; added H − 1, 5 μ/well): 8 | CPE inhibition (AI) ([1]; added H − 2, 5 μ/well): 1 | CPE inhibition (AI) ([2]; added H0, 5 μ/well): 81 | CPE inhibition (AI) ([2]; added H0, 10 μ/well): 92 | CPE inhibition (AI) ([2]; added H + 1, 5 μ/well): 26 | CPE inhibition (AI) ([2]; added H − 1, 5 μ/well): 72 | CPE inhibition (AI) ([2]; added H − 2, 5 μ/well): 100

KKKKKKKKKKKKKKKKKKKVAYISRGGVSTYYSDTVKGRFTRQKYNKRA [K19pF4-1]
transfection efficacy relative to polylysine alone [6]: about 1000 times | transfection efficacy (luciferase) ([6]; 24 μg peptide per 6 μg pCMVLUC, 5 h incubation): 2×10^6 RLU/mg of proteins | LOG (TITER/ML) [4]: 8.75 | TITER REDUCTION FACTOR [4]: 8 | inhibiting effect on type 1 polio virus replication [5]: more than 30 factor | LOG (TITER/ML) [5]: 8 | TITER REDUCTION FACTOR [5]: 32 | inhibition of infection of cells by CMV [7]: ~100% | NUMBER OF PLAQUES FORMED, Mean [7, 10]: 100.0 | NUMBER OF PLAQUES FORMED, individual determinations [7, 10]: 100 and 125 and 75 | % reduct'n of plaques formed [7, 11]: 99.5% | NUMBER OF PLAQUES FORMED, Mean [7, 11]: 166.7 | NUMBER OF PLAQUES FORMED, individual determinations [7, 11]: 0 and 250 (2×) | action on CMV proteins (Western blot) ([7]; added to cells after viral adsorption): had no action | inhibition of virus replication ([7]; cells treated before, and at the same time, as viral infection): 99.5% | cytopathogenic effects (morphology) ([7]; treated at the end of / after viral adsorption): large | appearance of CMV proteins (Western blot) ([7]; treated at the same time as viral infection): no appearance of late proteins was noted | cytopathogenic effects (morphology) ([7]; treated before or at the same time as the viral infection): displayed no morphological modifications | appearance of CMV proteins (Western blot) ([7]; treated before viral infection): the appearance of neither early proteins nor late proteins of the CMV was noted | CPE inhibition (AI) ([1]; added H0, 5 μ/well): 13 | CPE inhibition (AI) ([1]; added H0, 10 μ/well): 30 | CPE inhibition (AI) ([1]; added H0, 20 μ/well): 28 | CPE inhibition (AI) ([1]; added H + 1, 5 μ/well): 10 | CPE inhibition (AI) ([1]; added H + 1, 10 μ/well): 12 | CPE inhibition (AI) ([1]; added H + 1, 20 μ/well): 10 | CPE inhibition (AI) ([1]; added H − 1, 5 μ/well): 13 | CPE inhibition (AI) ([1]; added H − 1, 10 μ/well): 30 | CPE inhibition (AI) ([1]; added H − 1, 20 μ/well): 28 | CPE inhibition (AI) ([1]; added H − 2, 5 μ/well): 1 | CPE inhibition (AI) ([1]; added H − 2, 10 μ/well): 2 | CPE inhibition (AI) ([1]; added H − 2, 20 μ/well): 7 | CPE inhibition (AI) ([2]; added H0, 5 μ/well): 15 | CPE inhibition (AI) ([2]; added H0, 10 μ/well): 25 | CPE inhibition (AI) ([2]; added H0, 20 μ/well): 42 | CPE inhibition (AI) ([2]; added H + 1, 5 μ/well): 1 | CPE inhibition (AI) ([2]; added H + 1, 10 μ/well): 13 | CPE inhibition (AI) ([2]; added H + 1, 20 μ/well): 1 | CPE inhibition (AI) ([2]; added H − 1, 5 μ/well): 25 | CPE inhibition (AI) ([2]; added H − 1, 10 μ/well): 7 | CPE inhibition (AI) ([2]; added H − 1, 20 μ/well): 47 | CPE inhibition (AI) ([2]; added H − 2, 5 μ/well): 21 | CPE inhibition (AI) ([2]; added H − 2, 10 μ/well): 5 | CPE inhibition (AI) ([2]; added H − 2, 20 μ/well): 25 | toxicity of the polyplex [8]: did not induce any toxicity | increase of transfection after 24 h with respect to 5 h30 ([8]; 3T3, charge ratio R 4.4): about 1.3 factor | luciferase activity ([8]; 3T3, charge ratio R 4.4, incubating for 5 h30): 2-3×10^7 RLU/mg of protein
